Values joined by “and” are separate entries in the source; they are usually repeats but may differ in a detail not shown here. Equal entries are not always repeated.
How the values were obtained:
L^d MHC I molecule = target: T1, L^d MHC I molecule (Mus musculus, UniProt P01897); test: MHC I stabilization assay on TAP-deficient RMA-S.L^d cells; format: binding; settings: flow cytometry MFI
T1 construct: expressed in transfected cells; host or cells: RMA-S.L^d cells (TAP-deficient), gift from T. Hansen
T1 sequence (P01897 25-362): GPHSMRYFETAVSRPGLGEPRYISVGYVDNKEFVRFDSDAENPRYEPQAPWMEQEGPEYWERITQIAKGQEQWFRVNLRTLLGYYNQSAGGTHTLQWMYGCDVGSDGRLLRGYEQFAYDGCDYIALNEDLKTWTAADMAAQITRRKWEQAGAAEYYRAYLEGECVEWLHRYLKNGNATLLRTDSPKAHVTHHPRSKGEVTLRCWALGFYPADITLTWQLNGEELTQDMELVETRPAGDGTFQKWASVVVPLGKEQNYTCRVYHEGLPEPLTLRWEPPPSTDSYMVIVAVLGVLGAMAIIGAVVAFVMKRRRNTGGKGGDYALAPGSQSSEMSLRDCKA
T1 sequence (P01887 21-119 partner): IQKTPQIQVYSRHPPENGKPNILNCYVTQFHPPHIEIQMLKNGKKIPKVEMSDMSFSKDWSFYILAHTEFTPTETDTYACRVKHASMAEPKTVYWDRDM
From the text: We took advantage of the genetic diversity among three common T. gondii strains (type I, II and III). While the GRA4-derived SM9 and ROP7-derived IF9 peptides are conserved (data not shown and ToxoDB.org), the GRA6-derived HF10 peptide is polymorphic between type II and type I/III strains. Within the last 10 residues of GRA6, four non-synonymous single-nucleotide polymorphisms differentiate the type II sequence (HF10: HPGSVNEFDF) from the type I/III sequence (HY10: HPERVNVFDY) (Fig. 1A and Fig. S1 in Text S1). We noted that instead of a phenylalanine (F), the C-terminal residue in GRA6III is a tyrosine (Y), a residue not expected to be an appropriate anchor residue for L^d binding. To evaluate the ability of HF10 and HY10 to bind to L^d, we used an MHC I stabilization assay. TAP-deficient RMA-S cells display empty, unstable MHC I molecules and addition of exogenous peptides that can bind to MHC I can stabilize their expression on the cell surface, as read out by flow cytometry.
RMA-S.L^d cells were a gift from T. Hansen (St-Louis, MO, USA). RMA-S.L^d cells were incubated at 37°C, 5% CO2 for 8 h to saturate the culture medium with CO2. The flask was sealed with parafilm and incubated at RT overnight. The next day, cells were washed with PBS and plated at 3×10^5 cells/well in a 96-W plate. Peptide was added to the cells in serial dilutions. The plate was incubated for 1 h at RT and 3 h at 37°C. Cells were stained with the 30-5-7 antibody (specific for conformed, peptide-bound L^d) and a phycoerythrine (PE)-coupled goat anti-mouse secondary antibody and analyzed by flow cytometry.

[1] = tested on: CD8 T cells from spleens of T. gondii-infected B10.D2 mice; test: Ex vivo IFN-γ intracellular staining of splenocytes restimulated in vitro with peptide; format: cell-based; settings: splenocytes of B10.D2 mice 3 weeks post-infection with CEP+GRA6II; one representative mouse out of 3
Experimental: (§1) Mice were sacrificed 3 to 4 weeks after infection. Spleens were dissociated into single-cell suspensions in complete RPMI (Invitrogen) supplemented with 10% (vol/vol) FCS (Hyclone). Samples were depleted of erythrocytes with ACK lysis buffer (100 µM EDTA, 160 mM NH4Cl and 10 mM NaHCO3). Leukocytes from the brain were prepared as in [17]. In brief, brains were minced and digested for 1 h at 37°C with 1 mg/ml collagenase (Sigma) and 100 µg/ml DNAseI (Roche) in complete RPMI. Brain suspensions were filtered through 70-µm cell strainers and centrifuged for 10 min at 200 g. Cells were resuspended in 60% (vol/vol) Percoll (GE Healthcare), overlaid on 30% (vol/vol) Percoll and centrifuged 20 min at 1,000 g. Infiltrating mononuclear cells were collected from the gradient interface and the remaining erythrocytes were lyzed with ACK lysis buffer.
(§2) For other stainings, surfaces were labeled according to standard procedures with flow cytometry buffer (3% (vol/vol) FCS and 1 mM EDTA in PBS). Intracellular IFN-γ was detected with the Cytofix/Cytoperm kit (BD Pharmingen). DimerX H-2L^d:Ig (fusion protein of H-2L^d and immunoglobulin; BD Biosciences) was used according to the manufacturer's instructions and as described in [17]. All flow cytometry data were acquired on an XL Analyzer (Coulter) or a LSRII (Becton Dickinson) and were analyzed with FlowJo software (Tree Star).

[2] = tested on: T. gondii-specific CD8 T cells of infected B10.D2 mice; test: Ex vivo staining of peptide-specific CD8 T cells with peptide-loaded L^d DimerX; format: cell-based, mouse; settings: B10.D2 mice 4 weeks post-infection; HF10 value in CEP+GRA6II-infected mice; mean +/- s.d.; 3 independent experiments pooled; SD
Experimental: as §1, §2

[3] = tested on: naïve T. gondii-specific CD8α+ T cells in naive B10.D2 mice; test: Naïve T cell enumeration by tetramer-based enrichment and flow cytometry; design: species or system mouse
Experimental: We next assessed whether abundance of peptide-specific T cells in the repertoire of naïve mice may control immunodominance. We employed a tetramer-based enrichment procedure, [24] to enumerate naïve T cells isolated from spleen and lymph nodes of uninfected mice and specific for each of the 3 epitopes. Numbers of T cell precursors were analyzed by flow cytometry after gating on a population of live dump^− (dump = B220, F4/80, MHC II) CD3^+ CD8α^+ cells (Fig. S4 in Text S1). […] Thus the immunodominance of HF10 cannot be explained by a high starting precursor frequency of specific T cells.
Spleen and major lymph nodes from individual naïve B10.D2 mice were harvested. Single cell suspension was stained with PE-labeled (Prozyme) SM9:L^d, IF9:L^d or HF10:L^d tetramers (NIH tetramer facility). Tetramer enrichment was performed on each sample with anti-PE magnetic beads (Miltenyi Biotec) and each sample was stained with antibodies (BD Biosciences) for flow cytometry analysis. Total numbers of CD8α^+tetramer^+ T cells per mouse were determined as before, [24].

type II parasite = settings: H2^d mice immunized with HF10-loaded bone marrow-derived dendritic cells; cited from earlier work
[4] = MHC I stabilization on RMA-S.L^d cells, representative of 3 assays
[5] = uninfected B10.D2 mice, tetramer enrichment

With “HPGSVNEFDF [HF10, decamer peptide derived from type II GRA6 C-terminus, presented by L^d MHC I]” the “Affinity for L^d relative to SM9 (in words)” value (L^d MHC I molecule; [4]) was “fell in the same range as the T. gondii subdominant peptide SM9”, the “Affinity for L^d, fold higher than that of IF9, QL9 and YL9” value (L^d MHC I molecule; [4]) was roughly 10 fold and the “Peptide concentration stabilizing L^d surface expression, fold lower compared to HY10” value (L^d MHC I molecule; RMA-S.L^d cells pulsed with serial peptide dilutions, 1 h RT and 3 h 37°C, 30-5-7 antibody, representative of 2 assays) was 1000 fold. The “Percentage of IFN-γ+ out of CD8+ cells after peptide restimulation” value [1] was 24.7% and ~25%, the “Frequency of peptide-specific CD8 T cells in the spleen (peptide-loaded L^d dimers)” value [2] was 9.5%+/−3.7 and the “Number of tetramer+ cells / mouse (naïve peptide-specific CD8α+ T cells)” value ([3]; spleen and lymph nodes of uninfected B10.D2 mice, peptide:L^d tetramer enrichment, mean, pooled from 3 independent experiments) was 400 cells / mouse. The “Frequency of naïve HF10-specific CD8 T cells, fold lower than IF9-specific” value [3, 5] was roughly 3 fold, the “Frequency of naïve HF10-specific CD8 T cells, fold lower than SM9-specific” value [3, 5] was “around 10 fold” and the “Protection against lethal parasite challenge (in words)” value (type II parasite) was “protects against lethal type II parasite challenge”.

Source: publication PMC3688528, “Location of the CD8 T Cell Epitope within the Antigenic Precursor Determines Immunogenicity and Protection against the Toxoplasma gondii Parasite” (PLoS Pathogens, 2013)
